Measured values from US9443060B2, “Method and system to provide personalized pharmaceutical compositions and dosages” (Volant Holdings GMBH, priority 2009, dated 2016).
Like-named read-outs stand apart in the source and are kept apart here.

Legend:
[1] = system: carbohydrate exposure (CE); experiment: Glucose supply and insulin demand model: effect on carbohydrate exposure; format: in vivo, human; parameters: scale not given here; conditions: Metformin 2000 mg, Glyburide 10 mg, Pioglitazone 45 mg, Insulin Glargine 0.5 U/kg daily; pH encapsulated glucose 3.0 grams/day
Protocol: (§1) Therapeutic targets of the glucose supply (CE, 1+2; HGU, 3; GNG, 4; IR, 5) and insulin demand (PGU, 6; PIE, 7) model are presented in FIG. 1. To identify quantitative differences between antidiabetic agents on CE, HGU, GNG, IR, PGU, and PIE, multidatabase searches (Cochrane Central Register of Controlled Trials and Cochrane Register of Systematic Reviews, Embase, OVID Healthstar, OVID Journals, and PubMed) were conducted cross-referencing title and keywords for all selected antidiabetic therapies and their respective targets.
(§2) Alpha-glucosidase, biguanide, and thiazolidinedione (TZD) studies with long-term, pre-post design at maximal therapeutic doses were identified to simulate chronic administration. To maintain consistency with cardiovascular trials and accommodate known influences of hyperglycemia and hyperinsulinemia on the respective targets,^13-16 studies including patients with HbA1c in the range of 6-8% and body mass index (BMI)≧30 kg/m^2 were preferentially selected. In the event multiple studies were available to identify the effect of an agent on a therapeutic target, the mean percent change was used. Conversely, if there was evidence that an agent would elicit a response on a given target but no mathematical representation of the difference was provided, conservative estimates consistent with the scale of other agents and the degree of glucose regulation were instituted to best represent the expected effect. Individual agents were then characterized for the 24 h percent change from baseline for CE, HGU, GNG, IR, PGU, and PIE. Carbohydrate exposure was determined as the combined effect of caloric intake and intestinal carbohydrate absorption. Hepatic glucose uptake was defined as the reported value obtained immediately following oral glucose loading. Because GNG is known to be enhanced in the fasting state and persistent throughout the prandial phase,^17,18 effect was determined during the fasting state and considered equivalent throughout the prandial phase. For studies evaluating fasting glucose and insulin concentrations, an index of IR was determined by homeostasis model assessment of insulin resistance (HOM-AIR) using the following formula: Insulin (mU/liter)×Glucose (mmol)/22.5.^19 To account for known differences in secretory and uptake dynamics during the fasting and prandial phases, studies identifying the impact of therapies during the fasting state (or simulated hyperinsulinemic euglycemic clamp) and prandial phase (or oral glucose load insulin clamp) were specifically identified for changes in PGU (glucose infusion rate) and PIE (insulin concentrations) according to Equation (1): […]
(§3) For sulfonylurea and insulin-based therapies, insulin concentration time profiles were obtained and superimposed on the baseline 24 h insulin concentration time profile of T2D patients (FIG. 2) to calculate the increase in PIE (trapezoidal rule).^20 Calculated increases in incremental and cumulative insulin exposure were correlated to known insulin dose-response effects on HGU, GNG, and PGU (FIG. 3),^18,21 according to the equation y=mx+b. Twenty-four-hour increases in HGU, PGU, and PIE and decreases in GNG were compared to baseline values and percent change calculated.
(§4) With alpha-glucosidase, biguanide, TZD, secretagogue, and insulin therapies characterized for their respective impacts on CE, HGU, GNG, IR, PIE, and PGU, identification of their effect on the glucose supply (decrease in CE, increase in HGU, decrease in GNG, decrease in IR) and insulin demand (increase in PIE, increase in PGU) dynamic was assessed according to Equation (2), which provides the SD ratio according to the invention: […]

[2] = system: hepatic gluconeogenesis (GNG); conditions: metformin 2550 mg daily, cited from earlier work
[3] = system: intestinal glucose utilization; conditions: cited from earlier work
[4] = system: intestinal glucose transfer; conditions: metformin 50 mg/kg, mice; cited from earlier work
[5] = system: peripheral insulin exposure (PIE); conditions: cited from earlier work
[6] = system: intestinal carbohydrate absorption; conditions: Jackson; metformin, 75 g oral glucose load with labeled glucose, 3 h; cited from earlier work
insulin resistance (IR) [7] = conditions: cited from earlier work
[8] = system: peripheral glucose uptake (PGU); conditions: cited from earlier work
[9] = system: peripheral insulin exposure (PIE); experiment: Glucose supply and insulin demand model: effect on peripheral insulin exposure; format: in vivo, human
Protocol: as §1, §2, §3, §4
Twenty-four-hour steady state insulin concentration time curves were superimposed on the baseline secretion profile of the standard T2D patient.

[10] = system: brush border vesicles isolated from rabbit intestine; conditions: 5 mM metformin; cited from earlier work
insulin resistance (IR) [11] = experiment: Glucose supply and insulin demand model: effect on insulin resistance; format: in vivo, human
Protocol: as §1, §2, §3, §4

[12] = system: peripheral glucose uptake (PGU); experiment: Glucose supply and insulin demand model: effect on peripheral glucose uptake; format: in vivo, human
Protocol: as §1, §2, §3, §4

[13] = system: hepatic gluconeogenesis (GNG); experiment: Glucose supply and insulin demand model: effect on hepatic gluconeogenesis; format: in vivo, human
Protocol: as §1, §2, §3, §4

[14] = system: hepatic glucose uptake (HGU); conditions: Iozzo; metformin 2000 mg daily, rosiglitazone 8 mg daily; 26 weeks; PET [18F]FDG, insulin clamp; cited from earlier work
[15] = system: hepatic glucose uptake (HGU); experiment: Glucose supply and insulin demand model: effect on hepatic glucose uptake; format: in vivo, human
Protocol: as §1, §2, §3, §4

[16] = Metformin 2000 mg, Glyburide 10 mg, Pioglitazone 45 mg, Insulin Glargine 0.5 U/kg daily, pH encapsulated glucose 3.0 grams/day

**Q.** With `CN(C)C(=N)N=C(N)N` [Metformin] as the compound, how does the “Score CE” value [1] read?
**A.** 0.15

**Q.** And the “rate of hepatic GNG, ^2H2O method” value ([2]; Hundal, 3 months, before 0.42±0.04)?
**A.** 0.28±0.03 mmol/m^−2/min^−1

**Q.** What about the “rate of hepatic GNG, nuclear magnetic resonance method” value ([2]; Hundal, 3 months, before 0.59±0.03) of the same compound?
**A.** 0.18±0.03 mmol/m^−2/min^−1

**Q.** What about the “reduction of rate of hepatic GNG, ^2H2O method” value ([2]; Hundal, 3 months) of the same compound?
**A.** 33%

**Q.** What about the “reduction of rate of hepatic GNG, nuclear magnetic resonance method” value ([2]; Hundal, 3 months) of the same compound?
**A.** 36%

**Q.** And the “reduction of rate of plasma lactate to plasma glucose conversion (GNG)” value ([2]; Stumvoll, 16 weeks, fasted T2D)?
**A.** 37%

**Q.** And the “rate of plasma lactate to plasma glucose conversion (GNG)” value ([2]; Stumvoll, 16 weeks, before 7.3±0.7)?
**A.** 4.6±0.6 μmol/kg^−1/min^−1

**Q.** What about the “increase in glucose utilization in mucosa from different regions of the intestine” value ([3]; Bailey, metformin 250 mg/kg^−1, normal rats, intravenous glucose tolerance test) of the same compound?
**A.** 30-60%

**Q.** And the “increase in glucose utilization in the jejunum” value ([3]; Penicaud, metformin 350 mg/kg^−1/day^−1 for 8 days, obese fa/fa rats)?
**A.** 39%

**Q.** What about the “reduction of net glucose transfer in the serosal fluid” value [4] of the same compound?
**A.** 12%

**Q.** And the “mean fasting and postprandial plasma insulin concentrations” value ([5]; Inzucchi, metformin 2000 mg daily, 12 weeks)?
**A.** slightly, but not significantly reduced

**Q.** And the FPI ([5]; Iozzo, metformin, before 63±12)?
**A.** 43.0 ± 5.0 pmol/L

**Q.** And the “reduction of FPI” value ([5]; Iozzo, metformin)?
**A.** ~30%

**Q.** What about the FPI ([5]; Sharma, metformin 2000 mg daily, 16 weeks, before 76.0±54.5) of the same compound?
**A.** 69.0 ± 45.0 pmol/L

**Q.** And the “reduction in FPI” value ([5]; Sharma, metformin 2000 mg daily, 16 weeks)?
**A.** ~10%

**Q.** And the FPI ([5]; Stumvoll, metformin, before 12±5)?
**A.** 10 μU/ml

**Q.** What about the “reduction of FPI” value ([5]; Stumvoll, metformin) of the same compound?
**A.** 17%

**Q.** And the FPI ([5]; Tiikkainen, metformin 2000 mg daily, 16 weeks, before 13)?
**A.** 9 mU/liter

**Q.** What about the “reduction in FPI” value ([5]; Tiikkainen, metformin 2000 mg daily, 16 weeks) of the same compound?
**A.** ~30%

**Q.** And the “reduction of FPI concentrations (range over studies)” value ([5]; metformin)?
**A.** 10-30%

**Q.** What about the absorption of glucose [6] of the same compound?
**A.** slightly delayed, but ultimately unaltered

**Q.** What about the “reduction of calculated IR” value (insulin resistance (IR) [7]; T2D patients, maximal therapeutic doses of metformin (Iozzo, Stumvoll, Tiikkainen, Sharma)) of the same compound?
**A.** 38-44%

**Q.** And the “reduction of calculated IR (HOMA-IR)” value (insulin resistance (IR) [7]; meta-analysis of randomized controlled trials, people at risk for T2D, metformin)?
**A.** 22.6%

**Q.** What about the “increase in glucose infusion rate” value ([8]; Inzucchi, metformin 2000 mg daily, 12 weeks, euglycemic hyperinsulinemic clamp at 100 mg/dl) of the same compound?
**A.** 13%

**Q.** And the glucose infusion rate ([8]; Inzucchi, metformin 2000 mg daily, 12 weeks, euglycemic hyperinsulinemic clamp, before 240)?
**A.** 272 mg/m^−2/min^−1

**Q.** What about the “rate of plasma glucose turnover” value ([8]; Stumvoll, metformin, before 2.8±0.2) of the same compound?
**A.** 2.0±0.2 mg/kg^−1/min^−1

**Q.** What about the systemic glucose disposal ([8]; Stumvoll, metformin) of the same compound?
**A.** did not change

**Q.** What about the “glucose rate of disappearance” value ([8]; Tiikkainen, metformin 2000 mg daily, 16 weeks, clamp at 144 mg/dl, before 0.09±0.01, unchanged) of the same compound?
**A.** 0.10±0.01 mg/kg^−1/min^−1

**Q.** And the “Score PIE” value [9, 16]?
**A.** −0.10

**Q.** What about the PIE ([9]; adjustment factor = increase in peripheral insulin exposure at the therapeutic dose of Table 1, T2D) of the same compound?
**A.** −0.10

**Q.** And the glucose uptake [10]?
**A.** nominal decrease in glucose uptake

**Q.** What about the “Score IR” value (insulin resistance (IR) [11]; [16]) of the same compound?
**A.** 0.38

**Q.** And the IR reduction (insulin resistance (IR) [11]; adjustment factor = decrease in insulin resistance at the therapeutic dose of Table 1, T2D)?
**A.** 0.38

**Q.** What about the “Score PGU” value [12, 16] of the same compound?
**A.** 0.14

**Q.** And the PGU ([12]; adjustment factor = increase in peripheral glucose uptake at the therapeutic dose of Table 1, T2D)?
**A.** 0.14

**Q.** What about the “Score HGI” value [13, 16] of the same compound?
**A.** 0.35

**Q.** What about the GNG inhibition ([13]; adjustment factor = decrease in hepatic gluconeogenesis at the therapeutic dose of Table 1, T2D) of the same compound?
**A.** 0.35

**Q.** And the “increase in HGU, placebo-subtracted value” [14]?
**A.** +0.008±0.004 μmol/kg^−1/min^−1

**Q.** What about the “Score HGU” value [15, 16] of the same compound?
**A.** 0.40

**Q.** What about the HGU uptake ([15]; adjustment factor = increase in hepatic glucose uptake at the therapeutic dose of Table 1, T2D) of the same compound?
**A.** 0.40
